Columns and labels:
[1] = test system: Xanthomonas campestris pv. campestris; assay: In vivo preventive test on Xanthomonas campestris pv. campestris (black rot on cabbage); conditions: 31 ppm, cabbage plants sprayed 72 hours before inoculation; evaluated 8 or 10 days after inoculation
Description: The tested active ingredients were prepared by homogenization in a mixture of acetone/Dimethyl sulfoxide/Tween®, and then diluted with water to obtain the desired active material concentration.
The young plants of cabbage were treated by spraying the active ingredient prepared as described above.
Control plants were treated only with an aqueous solution of acetone/Dimethyl sulfoxide/Tween®.
After 72 hours, the plants were contaminated by spraying the leaves with an aqueous bacteria suspension of Xanthomonas campestris pv. campestris. The contaminated cabbage plants were incubated for 8 or 10 days at 27° C. at 95% relative humidity.
The test was evaluated 8 or 10 days after the inoculation. 0% means an efficacy which corresponds to that of the control plants while an efficacy of 100% means that no disease was observed.

[2] = test system: salicylate responsive promoter sequence of the PR1 (pathogenesis-related protein I) gene (AT2G14610); assay: Induction of defense gene expression in Arabidopsis thaliana (PR1 promoter-GFP reporter plants); assay type: in vivo; conditions: 300 ppm, sprayed; 3rd day after spraying; mock treated leaves set as 1.00
Description: Arabidopsis thaliana reporter plants containing the coding sequence of a green fluorescent protein (GFP) linked to the salicylate responsive promoter sequence of the PR1 (pathogenesis-related protein I) gene (AT2G14610) were grown for five days and then sprayed with compounds. On the 3rd day after spraying, plant fluorescence was assessed with a MacroFluo instrument from Leica Microsystems (Wetzlar, Germany). Fluorescences were quantified with the Meta-Morph Microscopy Automation & Image Analysis Software (Molecular Devices, Sunnyvale, Calif., United States).
Background fluorescence in mock treated leaves was set as 1.00.

O=C(NC1(C(=O)O)CC1)c1cc(Br)c(Br)s1 [CMP1]
efficacy [1]: 10%

O=C(NC1(C(=O)O)CC1)c1sc(Br)c(Br)c1Br [I.14]
efficacy [1]: at least 80%

O=C(O)c1ccccc1O [Salicylic acid]
relative fluorescence value [2]: 2.70

— patent publication US20220274945A1, “SUBSTITUTED THIOPHENE CARBOXAMIDES AND DERIVATIVES THEREOF AS MICROBICIDES” (Bayer Aktiengesellschaft, priority 2019, published 2022)
